Patent publication US11071731B2, “Allosteric modulators of the mu opioid receptor” (Chiromics, LLC, priority 2017, dated 2021)

Tests used:
mu opioid receptor (MOR) [1] = target: T1, mu opioid receptor (MOR) (Homo sapiens, UniProt P35372); assay: PathHunter β-arrestin recruitment assay, PAM mode with EC20 endomorphin-1; assay type: cell-based; conditions: for β-arr Max. Resp.: maximal response for β-arrestin recruitment; for EC50: β-arrestin recruitment, read-out: β-arr. EC50
Summary of the method: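 Enzyme fragment complementation read-out: β-gal ED fragment fused to receptor, EA fused to β-arrestin, recruitment restoring β-gal activity detected by chemiluminescence. EC50 and percent maximal response derived for each compound.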

mu opioid receptor (MOR) [2] = target: T1, mu opioid receptor (MOR); assay: Hit Hunter cAMP signaling assay (adenylyl cyclase inhibition), PAM mode with EC20 endomorphin-1; assay type: cell-based; conditions: for EC50: cAMP EC50, adenylyl cyclase inhibition; for cAMP Max. Resp.: maximal response for adenylyl cyclase inhibition

T1 sequence (P35372 whole entry, the tested form may be a part): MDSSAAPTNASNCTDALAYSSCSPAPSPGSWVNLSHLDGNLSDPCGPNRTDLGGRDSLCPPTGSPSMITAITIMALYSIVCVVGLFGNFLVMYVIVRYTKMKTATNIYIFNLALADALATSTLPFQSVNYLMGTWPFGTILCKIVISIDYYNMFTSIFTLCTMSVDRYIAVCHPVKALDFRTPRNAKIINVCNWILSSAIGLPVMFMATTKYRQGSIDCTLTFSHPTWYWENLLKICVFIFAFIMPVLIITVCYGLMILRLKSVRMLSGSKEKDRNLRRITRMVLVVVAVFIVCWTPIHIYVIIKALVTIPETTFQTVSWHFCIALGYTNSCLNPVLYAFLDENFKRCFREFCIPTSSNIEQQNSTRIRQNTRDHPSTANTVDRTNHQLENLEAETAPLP

SMILES	β-arr Max. Resp. (mu opioid receptor (MOR) [1])	EC50 (mu opioid receptor (MOR) [1]) [nM]	EC50 (mu opioid receptor (MOR) [2]) [nM]	cAMP Max. Resp. (mu opioid receptor (MOR) [2])
Fc1ccc(C2CCCCN2Cc2cc(Cl)ccc2F)cc1Cl (stereo not drawn) [compound 160]	F (F represents a maximal response of > 60%)	700 to 2100	700 to 2100	F (F represents a maximal response of > 60%)
Fc1ccc(CN2CCCCC2c2cccc(C(F)(F)F)n2)cc1Cl (stereo not drawn) [compound 161]	F (F represents a maximal response of > 60%)	700 to 2100	700 to 2100	E (E represents a maximal response of 40-60%)
FC(F)(F)c1cccc(C2CCCCN2Cc2cc(Cl)ccn2)n1 (stereo not drawn) [compound 162]	F (F represents a maximal response of > 60%)	> 2100	> 2100	E (E represents a maximal response of 40-60%)
Fc1ccc(C2CCCCN2Cc2cc(Cl)ccc2F)cc1 (stereo not drawn) [compound 163]	F (F represents a maximal response of > 60%)	700 to 2100	< 700	E (E represents a maximal response of 40-60%)
Fc1cc(Cl)cc(CN2CCCCC2c2cccc(C(F)(F)F)n2)c1 (stereo not drawn) [compound 164]	F (F represents a maximal response of > 60%)	700 to 2100	< 700	E (E represents a maximal response of 40-60%)
FC(F)(F)c1cccc(C2CCCCN2Cc2cccc(Cl)n2)n1 (stereo not drawn) [compound 165]	F (F represents a maximal response of > 60%)	> 2100	700 to 2100	F (F represents a maximal response of > 60%)
FC(F)(F)c1cccc(C2CCCCN2Cc2ccnc(Cl)c2)n1 (stereo not drawn) [compound 166]	F (F represents a maximal response of > 60%)	> 2100	> 2100	E (E represents a maximal response of 40-60%)
Fc1cc(C2CCCCN2Cc2cc(Cl)ccc2F)cc(C(F)(F)F)c1 (stereo not drawn) [compound 167]	F (F represents a maximal response of > 60%)	< 700	700 to 2100	F (F represents a maximal response of > 60%)
CNc1cccc(C2CCCCN2Cc2cc(Cl)ccc2F)n1 (stereo not drawn) [compound 168]	F (F represents a maximal response of > 60%)	> 2100	> 2100	F (F represents a maximal response of > 60%)
Fc1ccc(Cl)cc1CN1CCCCC1c1cccc(OC(F)(F)F)n1 (stereo not drawn) [compound 169]	F (F represents a maximal response of > 60%)	< 700	< 700	F (F represents a maximal response of > 60%)
FC(F)(F)c1cccc(C2CCCCN2Cc2cccc(Cl)c2)n1 (stereo not drawn) [compound 170]	F (F represents a maximal response of > 60%)	700 to 2100	< 700	E (E represents a maximal response of 40-60%)
Fc1cccc(C2CCCCN2Cc2cc(Cl)ccc2F)n1 (stereo not drawn) [compound 171]	F (F represents a maximal response of > 60%)	700 to 2100	700 to 2100	E (E represents a maximal response of 40-60%)
Fc1c(Cl)cccc1CN1CCCCC1c1cccc(C(F)(F)F)n1 (stereo not drawn) [compound 172]	F (F represents a maximal response of > 60%)	700 to 2100	< 700	E (E represents a maximal response of 40-60%)
FC(F)(F)c1cccc(C2CCCCN2Cc2cccc(Br)c2)n1 (stereo not drawn) [compound 173]	F (F represents a maximal response of > 60%)	< 700	< 700	F (F represents a maximal response of > 60%)
Fc1ccc(C2CCCCN2Cc2ccnc(Cl)c2)cc1Cl (stereo not drawn) [compound 174]	F (F represents a maximal response of > 60%)	700 to 2100	700 to 2100	E (E represents a maximal response of 40-60%)
FC(F)(F)c1cccc(CN2CCCCC2c2cccc(C(F)(F)F)n2)c1 (stereo not drawn) [compound 175]	F (F represents a maximal response of > 60%)	> 2100	> 2100	E (E represents a maximal response of 40-60%)
FC(F)(F)c1cccc(C2CCCCN2Cc2cc(Cl)ccc2Cl)n1 (stereo not drawn) [compound 176]	F (F represents a maximal response of > 60%)	700 to 2100	700 to 2100	F (F represents a maximal response of > 60%)
Fc1cc(C2CC(F)CCN2c2nc(Cl)ncc2F)cc(C(F)(F)F)c1 (stereo not drawn) [compound 196]	F (F represents a maximal response of > 60%)	< 700	< 700	F (F represents a maximal response of > 60%)
Fc1cnc(Cl)nc1N1CCC(F)CC1c1cccc(C(F)(F)F)c1 (stereo not drawn) [compound 197]	F (F represents a maximal response of > 60%)	700 to 2100	700 to 2100	F (F represents a maximal response of > 60%)
Fc1cc(C2CC(F)(F)CCN2c2nc(Cl)ncc2F)cc(C(F)(F)F)c1 (stereo not drawn) [compound 198]	F (F represents a maximal response of > 60%)	700 to 2100	700 to 2100	F (F represents a maximal response of > 60%)
Fc1cnc(Cl)nc1N1CCC(F)(F)CC1c1cccc(C(F)(F)F)c1 (stereo not drawn) [compound 199]	F (F represents a maximal response of > 60%)	< 700	700 to 2100	E (E represents a maximal response of 40-60%)
C=C1CCN(c2nc(Cl)ncc2F)C(c2cc(F)cc(C(F)(F)F)c2)C1 (stereo not drawn) [compound 200]	F (F represents a maximal response of > 60%)	< 700	< 700	E (E represents a maximal response of 40-60%)
OC1CCN(c2nc(Cl)ncc2F)C(c2cc(F)cc(C(F)(F)F)c2)C1 (stereo not drawn) [compound 201]	F (F represents a maximal response of > 60%)	> 2100	> 2100	F (F represents a maximal response of > 60%)
OC1CCN(c2nc(Cl)ncc2F)C(c2cccc(C(F)(F)F)c2)C1 (stereo not drawn) [compound 202]	F (F represents a maximal response of > 60%)	> 2100	> 2100	E (E represents a maximal response of 40-60%)
[2H]C1(c2ccc(F)c(Br)c2)C(F)CCCN1Cc1cccc(Cl)c1 (stereo not drawn) [compound 203]	F (F represents a maximal response of > 60%)	> 2100	< 700	D (D represents a maximal response of < 40%)
[2H]C1(c2cccc(C(F)(F)F)c2)C(F)CCCN1Cc1cccc(Cl)c1 (stereo not drawn) [compound 204]	F (F represents a maximal response of > 60%)	700 to 2100	700 to 2100	F (F represents a maximal response of > 60%)
[2H]C1(c2cccc(C(F)(F)F)c2)C(F)CCCN1Cc1cccc(Br)c1 (stereo not drawn) [compound 206]	F (F represents a maximal response of > 60%)	700 to 2100	700 to 2100	E (E represents a maximal response of 40-60%)
